These results are taken from US10457663B2, “Pyrazol-pyridine derivatives” (Hoffmann-La Roche Inc., priority 2016, dated 2019).

In one data set the target is T1, human EAAT3 (Homo sapiens, UniProt P43005).
T1 construct: expressed in transfected cells; host or cells: HEK-293
T1 sequence (P43005 1-524): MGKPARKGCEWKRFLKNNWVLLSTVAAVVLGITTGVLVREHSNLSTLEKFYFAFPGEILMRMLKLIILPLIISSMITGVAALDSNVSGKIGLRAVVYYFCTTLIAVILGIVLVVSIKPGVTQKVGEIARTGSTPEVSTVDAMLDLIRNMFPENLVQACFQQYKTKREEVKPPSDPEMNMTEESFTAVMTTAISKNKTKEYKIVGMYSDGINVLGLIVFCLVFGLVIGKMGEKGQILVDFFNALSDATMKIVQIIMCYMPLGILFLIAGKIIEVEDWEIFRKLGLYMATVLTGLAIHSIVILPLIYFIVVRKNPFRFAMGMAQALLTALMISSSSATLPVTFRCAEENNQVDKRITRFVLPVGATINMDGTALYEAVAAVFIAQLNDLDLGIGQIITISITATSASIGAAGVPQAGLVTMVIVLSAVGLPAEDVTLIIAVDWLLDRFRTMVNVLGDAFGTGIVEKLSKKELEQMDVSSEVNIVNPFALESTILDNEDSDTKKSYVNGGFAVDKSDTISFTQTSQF
The data set can be described thus: FLIPR Membrane Potential (FMP) assay. The data set is classed as cell-based. Conditions: HEK-293 cells stably expressing human EAAT3; L-glutamate as agonist at EC80; antagonist applied 15 min before; Kb by Cheng-Prusoff from IC50. The procedure: The FLIPR Membrane Potential (FMP) assay
HEK-293 cells stably expressing human EAAT3 were seeded at 55 000 cells/well in growth medium (DMEM glutamate free (Invitrogen 11960-044), 1% Pen Strep (10 ml/l GIBCO BRL N^o 15140-023), 10% FCS non dialysed heat inactivated, 5 mg/l puromycin) in poly-D-lysine treated 96-well black microtiter plates with clear-bottom. After 24 h, the growth medium was removed and 100 μl/well of Krebs buffer (140 mM NaCl, 4.7 mM KCl, 2.5 mM CaCl2), 1.2 mM MgCl2, 11 mM HEPES, 10 mM D-glucose, pH=7.4) added. The cells were then loaded by adding 100 μl/well FMP assay dye (FLIPR Membrane Potential assay reagent, Molecular Devices). The 96-well plates were then incubated at 37° C. for 1 h. The depolarization of the cells will cause more dye to enter in the cells, where it will bind to intracellular proteins and lipids and cause an increase in the fluorescence signal. Antagonist potency at human EAAT3 was determined by using L-glutamate as agonist at a concentration which gives 80% of the maximum response. The antagonists were applied 15 min before the application of the agonist L-glutamate. The assays were performed at room temperature and measurements done by using a Fluorometric Imaging Plate Reader (FLIPR, Molecular Devices) and filter #2. Responses were measured as peak increase in fluorescence minus basal (i.e. fluorescence without addition of L-glutamate). Kb was determined using the Cheng-Prusoff equation Kb=IC50/[1+(A/EC50)], where IC50 is the concentration of the antagonist producing 50% inhibition, A is the concentration of the agonist against which the IC50 is being determined (at EC80) and EC50 is the concentration of the agonist producing 50% […].

Each structure is given as a SMILES string.

On to `Cc1ccc(-c2cc(C(=O)NC(C)(C)C)cc(-c3ccnn3C(C)(C)C)n2)cc1` [Example 22, N-tert-Butyl-2-(2-tert-butyl-pyrazol-3-yl)-6-(4-methyl-phenyl)-pyridine-4-carboxamide], for which the melting point turned out to be 182 °C. For the same compound, the antagonist dissociation constant (Kb) at human EAAT3 turned out to be 0.054 µM.
For the compound `Cc1cc(-c2cc(C(=O)NC(C)(C)C)cc(-c3ccnn3C(C)C)n2)ccc1F` [Example 37, N-tert-Butyl-2-(4-fluoro-3-methyl-phenyl)-6-(2-propan-2-yl-pyrazol-3-yl)-pyridine-4-carboxamide], the melting point worked out at 160 °C. For the same compound, the antagonist equilibrium constant (Kb) on human EAAT3 came to 0.4 µM.
Regarding `CCC(C)(C)NC(=O)c1cc(-c2ccc(F)cc2)nc(-c2ccnn2C(C)(C)C)c1` [Example 10, 2-(2-tert-Butylpyrazol-3-yl)-6-(4-fluorophenyl)-N-(2-methylbutan-2-yl)-pyridine-4-carboxamide], the melting point is 154 °C. On human EAAT3, this compound registered an antagonist dissociation constant (Kb) of 0.14 µM.
`CC(C)(C)NC(=O)c1cc(-c2ccc(F)c(F)c2)nc(-c2ccnn2C(C)(C)C)c1` [Example 19, N-tert-Butyl-2-(2-tert-butyl-pyrazol-3-yl)-6-(3,4-difluoro-phenyl)-pyridine-4-carboxamide] showed a melting point of 216 °C. Also, the antagonist equilibrium constant (Kb) on human EAAT3 was found to be 0.05 µM.
In the same order, the values of `CC(C)n1nccc1-c1cc(C(=O)NC(C)(C)C#N)cc(-c2ccc(Cl)cc2)n1` [Example 52, 2-(4-Chlorophenyl)-N-(2-cyanopropan-2-yl)-6-(2-propan-2-yl-pyrazol-3-yl)-pyridine-4-carboxamide] are 206 °C and 0.44 µM.
In the same order, the values of `CC(C)n1nccc1-c1cc(C(=O)NC(C)(C)C)cc(-c2ccc(Cl)cc2)n1` [Example 7, N-tert-Butyl-2-(4-chlorophenyl)-6-(2-propan-2-yl-pyrazol-3-yl)-pyridine-4-carboxamide] are 207 °C and 0.37 µM.
As to `CC(C)(NC(=O)c1cc(-c2ccc(Cl)cc2)nc(-c2ccnn2C(C)(C)C)c1)C1CC1` [Example 53, 2-(2-tert-Butyl-pyrazol-3-yl)-6-(4-chlorophenyl)-N-(2-cyclopropyl-propan-2-yl)-pyridine-4-carboxamide], the melting point was 161 °C. On human EAAT3, this compound yielded a Kb of 0.86 µM.
For `CC(C)n1nccc1-c1cc(C(=O)NC(C)(C)C(F)(F)F)cc(-c2ccc(F)cc2)n1` [Example 44, 2-(4-Fluorophenyl)-6-(2-propan-2-yl-pyrazol-3-yl)-N-(1,1,1-trifluoro-2-methyl-propan-2-yl)-pyridine-4-carboxamide], the melting point turned out to be 186 °C. For the same compound, the Kb at human EAAT3 was 0.56 µM.
For `CC(C)(CO)NC(=O)c1cc(-c2ccc(Cl)cc2)nc(-c2ccnn2C(C)(C)C)c1` [Example 55, 2-(2-tert-Butyl-pyrazol-3-yl)-6-(4-chlorophenyl)-N-(1-hydroxy-2-methyl-propan-2-yl)-pyridine-4-carboxamide], in that order: 177 °C and 0.073 µM.
